Assay results reported in patent US20180201662A1, “PEPTIDE FOR PROMOTING CELL MIGRATION AND/OR SKIN WOUND HEALING, PHARMACEUTICAL COMPOSITION CONTAINING THE SAME, AND APPLICATION THEREOF” (Industrial Technology Research Institute, priority 2016, published 2018).
Where no end group is shown, it is not given here. [ ]: non-standard residue; d: D form.

What was measured:
Assay type in all cases: cell-based
[1] = system: human monocyte-derived macrophages; assay: TNF-α secretion of monocyte-derived macrophages stimulated with peptides (ELISA)
Experimental: (§1) Peripheral blood mononuclear cells were isolated from leukocytes in the blood of healthy donors by Ficoll Hypaque.
(§2) Monocytes were isolated from the peripheral blood mononuclear cells by using Human MACS CD14 Isolation Kit.
(§3) Monocytes (2×10^6 cells/mL) were seeded in a 6-well plate containing 2 mL fresh complete medium and cultured at 5% CO2, 37° C. for 6 days. The medium was changed every 2-3 days to make the monocytes differentiate to macrophages.
2. Detection of TNF-α Secretion of Monocyte-Derived Macrophages Stimulated with Peptides
Peptides were added to respective wells of a culturing plate to stimulate macrophages for 48 hours. Macrophages not stimulated were used as a blank group.
2.2.1 TNF-α secreted from macrophages to the supernatant of the culture was detected by a human TNF-α kit.
2.2.2 Absorbance of the supernatant of the culture at 450-540 nm was detected by a SpectraMax M5 microplate reader. Detection limitation of this ELISA kit to TNF-α is about […].

[2] = system: human umbilical vein endothelial cells (HUVEC); assay: MCP-1 secretion of human umbilical vein endothelial cells HUVECs stimulated with peptides (ELISA); conditions: Peptide 6 660 and 165 μg/ml, IL-6 200 and 50 ng/ml, FIG. 2A
Experimental: (§4) 3. Detections of MCP-1 Secretion of Human Umbilical Vein Endothelial Cells HUVECs and Human Monocyte-Derived Macrophages Stimulated with Peptides
(§5) Peptides were added to respective wells of a culturing plate to stimulate HUVECs for 24-48 hours, or to stimulate macrophages for 48 hours. In the experiment for macrophages, macrophages not stimulated were used as a blank group.
(§6) 3.2.1 MCP-1 respectively secreted from HUVECs and macrophages to the supernatant of the culture was detected by a […].
(§7) 3.2.2 Absorbance of the supernatant of the culture at 450-540 nm was detected by a SpectraMax M5 microplate reader. Detection limitation of this ELISA kit to MCP-1 is about […].

[3] = system: human monocyte-derived macrophages; assay: MCP-1 secretion of human monocyte-derived macrophages stimulated with peptides (ELISA)
Experimental: as §1, §2, §3, §4, §5, §6, §7

[4] = system: human keratinocyte cell line HaCaT; assay: MMP9 secretion of human keratinocyte cell line HaCaT stimulated with peptides (ELISA); conditions: 48 hours; peptides 1.5, 1 and 0.5 mg/ml vs IL-6 1000 and 100 ng/ml; FIG. 9
Experimental: 5. Detection of MMP9 Secretion of Human Keratinocyte Cell Line HaCaT Stimulated with Peptides
Peptides were added to respective wells of a culturing plate to stimulate HaCaT cells for 48 hours. HaCaT cells not stimulated were used as a blank group.
5.2.1 MMP9 secreted from HaCaT cells to the supernatant of the culture was detected by a MMP9 kit (R&D systems, Human MMP-9 DuoSet ELISA (DY911)).
5.2.2 Absorbance of the supernatant of the culture at 450-540 nm was detected by a SpectraMax M5 microplate reader. Detection limitation of this ELISA kit to MMP9 is about […].

[5] = system: human keratinocyte cell line HaCaT; assay: Cell migration analysis of human keratinocyte cell line HaCaT stimulated with peptides (scratch); conditions: compared to control group; concentrations of 300 μg/ml, 660 μg/ml and 1000 μg/ml; 18 hour; FIG. 3A, 3B
Experimental: 4. Cell Migration Analysis of Human Keratinocyte Cell Line HaCaT Stimulated with Peptides
4.1 Each well of a 12-well culturing plate was coated with 100 μg/ml of collagen (in 0.02N acetic acid) (0.5 ml/well).
4.2 The culturing plate was placed at 37° C. for 1 hour, and then was washed with Dulbecco's phosphate buffered saline (DPBS) one time.
4.3 HaCaT cells were seeded in the culturing plate with DMEM containing serum (5×10^5 cells/well), and the final serum concentration for each well was 10%.
4.4 The cells were cultured in a condition of 5% CO2, 37° C.
4.5 The medium was replaced with DMEM containing 0.6% serum for serum starvation and culture the cells overnight.
4.6 The bottom of the well of the culturing plate was scraped with 1000 μl tips, and the culturing plate was washed with Dulbecco's phosphate buffered saline twice.
4.7 The cells and peptides were cultured in DMEM containing 0.6% serum. HaCaT cells not stimulated with peptides or growth factors were used as a control group.
4.8 Photographs were taken at 0 hour and 18 hour.
4.9. The photographs were analyzed by Celllmage Comp software, and the migration distances for cells were calculated.

[6] = macrophages of Donor 4, 48 hours, peptides up to 250 μg/ml, IL-6 100 ng/ml and 50 ng/ml, FIG. 7
[7] = macrophages of Donor 5, 48 hours, peptides 50 μg/ml, IL-6 200 ng/ml, FIG. 12
[8] = macrophages of Donors 1-3, 48 hours, Peptide 6 up to 1000 μg/ml, IL-6 50 ng/ml, FIG. 1A-1C
[9] = macrophages of Donors 1-3, 48 hours, Peptide 6 125-1000 μg/ml, IL-6 5-200 ng/ml, FIG. 2B-2D
[10] = macrophages of Donor 5, 48 hours, peptides 50 μg/ml vs IL-6 200 ng/ml, FIG. 13
[11] = macrophages of Donor 4, 48 hours, peptides 50 ng/ml-250 μg/ml vs IL-6 100 and 50 ng/ml, FIG. 8

| Substance | TNF-α secretion of macrophages [1, 6] | TNF-α secretion of macrophages [1, 7] | TNF-α secretion of macrophages [1, 8] | MCP-1 secretion of HUVECs [2] | MCP-1 secretion of macrophages [3, 9] | MCP-1 secretion of macrophages [3, 10] | MMP9 secretion of HaCaT [4] | MCP-1 secretion of macrophages [3, 11] | cell migration of HaCaT [5] |
| --- | --- | --- | --- | --- | --- | --- | --- | --- | --- |
| IL-6: interleukin; mature form has the sequence of SEQ ID NO. 1; comparator | a great quantity of TNF-α | a great quantity of TNF-α | can induce macrophages to secrete TNF-α | a lower quantity of MCP-1 | a lower quantity of MCP-1 | – | – | – | – |
| 6M14: short form peptide of Peptide 6, sequence SEQ ID NO. 3 (EQARAVQMSTKVLI) [Peptide 6M14] | – | almost do not induce TNF-α secretion | – | – | – | a higher level of MCP-1 secretion than IL-6 | – | – | – |
| ITRI-2: isoform of Peptide 6 (SEQ ID NO. 6) with one D-form amino acid: valine at position 13 (NRFESSEEQARA[dV]QMSTKVLIQFLQKKA) | a low level of TNF-α | – | – | – | – | – | a higher level of MMP9 secretion than IL-6 | a higher level of MCP-1 secretion than IL-6 | – |
| Peptide 6: IL-6-derived peptide, sequence SEQ ID NO. 6, corresponds to amino acids of positions 102 to 129 of mature form IL-6 (NRFESSEEQARAVQMSTKVLIQFLQKKA) | a low level of TNF-α | almost do not induce TNF-α secretion | does not induce macrophages to secrete TNF-α | a great quantity of MCP-1 | a great quantity of MCP-1 | a higher level of MCP-1 secretion than IL-6 | a higher level of MMP9 secretion than IL-6 | a higher level of MCP-1 secretion than IL-6 | can promote cell migration |
